# From publication PMC9135679 (Cell Reports, 2022)
# Key:
# [1] = molecular target: DQ5 (HLA-DQA1*01:01/DQB1*05:01) (Homo sapiens, UniProt P01909+P01920, A157S/A45G/A70V/C70R/D89V/E106S/E118A/E183D/E77G/F83G/G63E/H151Q/H199R/H252R/H253Q/I129T/I235V/I88M/INS77G/K197Q/L107V/L117V/L119Y/L178F/L71W/L74F/L85Q/L91A/L98M/M46L/N214S/P87R/Q116E/Q256R/Q57E/Q76K/R102G/R240Q/R75S/R78G/S102Y/S185I/S41F/S97I/T103A/T109R/T121G/T122I/T172A/T86R/V148I/V68A/V73E/Y34C/Y58G/Y62H); test: Fluorescence polarization competition peptide binding assay, DQ5; settings: Figure 5E, described in words
# [2] = system: in vitro expanded T cell lines; test: IFN-γ ELISpot, T cells expanded in vitro with peptides or peptide pools; format: cell-based, human; settings: HCoV S pool-expanded lines from 3 convalescent COVID-19 donors; pool deconvolution; 1 μg/mL per peptide; positive by DFR2X
# [3] = system: PBMC from COVID-19, vaccinated, seronegative and pre-pandemic donors; test: IFN-γ ELISpot, ex vivo PBMC; format: cell-based, human; settings: of 10 convalescent COVID-19 donors analyzed
# [4] = system: T cell clones with partially HLA-matched APCs (LG2, 9068, MN605); test: T cell clone stimulation, IFN-γ ELISA; format: cell-based, human; settings: for dose-dependent reactivity relative to the SARS-CoV-2 peptide: 10-fold dilution series 1-10^−4 μg/mL, 24 hours
substance,measurement,setting,value
RVAGRSAIEDILFSKLV [229E-115],binding of homolog peptides to DQ5 relative to S811–831,[1],substantially weaker binding
"S986–1,006: SARS-CoV-2 spike candidate epitope, overlapping peptides 198/199",donors recognizing the pair of overlapping peptides,[2],single
same,donors showing ex vivo responses,[3],1 donors
SALEDLLFSKVVTSGLG [NL63-146],dose-dependent reactivity relative to the SARS-CoV-2 peptide,[4]; […],approximately 10 fold weaker
same,binding of homolog peptides to DQ5 relative to S811–831,[1],substantially weaker binding
SSSRSFFEDLLFDKVKL [HKU1-151],dose-dependent reactivity compared with S811–826,"[4]; clone #49, cyan group (DQ5, CoV2/HKU1)",similar
same,dose-dependent reactivity relative to the SARS-CoV-2 peptide,"[4]; clone #120, gold group (DP4, CoV2/HKU1)",approximately 10 fold weaker
same,binding of homolog peptides to DQ5 relative to S811–831,[1],binds more strongly than SARS-CoV-2
